Test results from ChEMBL document CHEMBL5528065, “Structure-Activity Relationship of a Pyrrole Based Series of PfPKG Inhibitors as Anti-Malarials” (J Med Chem, 2024).

system: not listed separately; assay: Inhibition of recombinant Plasmodium falciparum PKG using FAM-PKA peptide as fluorescent substrate preincubated for 15 mins followed by substrate addition measured after 1 hr by fluorescence polarization based IMAP assay; conditions: not given

| Compound | IC50 [nM] | pIC50 |
| --- | --- | --- |
| CN1CCC(c2cc(-c3ccncc3C#N)c(-c3ccc(F)cc3)[nH]2)CC1.Cl.Cl | 35 | 7.46 |
| CN1CCC(c2cc(-c3ccncc3Cl)c(-c3ccc(F)cc3)[nH]2)CC1.Cl.Cl | 152 | 7.47 |
| Cc1cc(-c2cc(C3CCN(C)CC3)[nH]c2-c2ccc(F)cc2)ccn1.Cl.Cl | 2550 | 5.59 |
| C[C@H]1C[C@H](c2cc(-c3ccncc3)c(-c3ccc(F)cc3)[nH]2)CCN1C.Cl.Cl (racemic) | 51 | 7.1 |
| CN1CCC(c2cc(-c3ccnc(C(N)=O)c3)c(-c3ccc(F)cc3)[nH]2)CC1.Cl.Cl | 1810 | 5.74 |
| CN1CCC(c2cc(-c3ccncc3)c(-c3ccc(F)cc3)n2C)CC1.Cl.Cl | 112 | 6.95 |
| CC(=O)O.CN1CCC(c2[nH]c(-c3ccc(F)cc3)c(-c3ccncc3)c2CO)CC1 | 226 | 6.65 |
| CN1CCC(c2cc(-c3ccncc3F)c(-c3ccc(F)cc3)[nH]2)CC1.Cl.Cl | 49 | 7.72 |
| CN1CCC(c2[nH]c(-c3ccc(F)cc3)c(-c3ccncc3)c2Br)CC1.Cl.Cl | 107 | 6.97 |
| CC(O)c1cc(-c2cc(C3CCN(C)CC3)[nH]c2-c2ccc(F)cc2)ccn1.Cl.Cl (stereo not given) | 10500 | 4.98 |
| CN1CCC(c2cc(-c3ccncc3)c(-c3ccc(F)cc3)[nH]2)CC1.Cl | 31 | 7.61 |
| C[C@@H]1C[C@H](c2cc(-c3ccncc3)c(-c3ccc(F)cc3)[nH]2)CCN1C.Cl.Cl (racemic) | 41 | 6.97 |
| CN1CCC(c2cc(-c3ccncc3)c(-c3ccsc3)[nH]2)CC1.Cl.Cl | 176 | 6.89 |
| CCOC(=O)c1c(C2CCN(C)CC2)[nH]c(-c2ccc(F)cc2)c1-c1ccncc1.Cl.Cl | 1030 | 5.99 |
| CN1CCC(c2cc(-c3ccnc(N)c3)c(-c3ccc(F)cc3)[nH]2)CC1.Cl.Cl | 352 | 6.45 |
| CN1CCC(c2cc(-c3ccncc3Br)c(-c3ccc(F)cc3)[nH]2)CC1.Cl.Cl | 35 | 7.46 |
| CN1C2CCC1CC(c1cc(-c3ccncc3)c(-c3ccc(F)cc3)[nH]1)C2.Cl.Cl (stereo not given) | 132 | 7.09 |
| Cc1cnccc1-c1cc(C2CCN(C)CC2)[nH]c1-c1ccc(F)cc1.Cl.Cl | 208 | 6.68 |

system: Plasmodium falciparum; assay: Antimalarial activity against drug-sensitive Plasmodium falciparum 3D7 infected in human erythrocytes assessed as reduction in parasitemia incubated for 72 hrs by SYBR green I and Mitotracker deep red dye based flow cytometric analysis; format: functional, organism-based; conditions: Plasmodium falciparum, 3D7, 72 h

| Compound | EC50 [nM] |
| --- | --- |
| CN1CCC(c2cc(-c3ccncc3C#N)c(-c3ccc(F)cc3)[nH]2)CC1.Cl.Cl | 360 |
| CN1CCC(c2cc(-c3ccncc3Cl)c(-c3ccc(F)cc3)[nH]2)CC1.Cl.Cl | 460 |
| Cc1cc(-c2cc(C3CCN(C)CC3)[nH]c2-c2ccc(F)cc2)ccn1.Cl.Cl | 2330 |
| C[C@H]1C[C@H](c2cc(-c3ccncc3)c(-c3ccc(F)cc3)[nH]2)CCN1C.Cl.Cl (racemic) | 380 |
| CN1CCC(c2cc(-c3ccnc(C(N)=O)c3)c(-c3ccc(F)cc3)[nH]2)CC1.Cl.Cl | 3920 |
| CN1CCC(c2cc(-c3ccncc3)c(-c3ccc(F)cc3)n2C)CC1.Cl.Cl | 710 |
| CC(=O)O.CN1CCC(c2[nH]c(-c3ccc(F)cc3)c(-c3ccncc3)c2CO)CC1 | 4610 |
| CN1CCC(c2cc(-c3ccncc3F)c(-c3ccc(F)cc3)[nH]2)CC1.Cl.Cl | 300 |
| CN1CCC(c2[nH]c(-c3ccc(F)cc3)c(-c3ccncc3)c2Br)CC1.Cl.Cl | 1550 |
| CC(O)c1cc(-c2cc(C3CCN(C)CC3)[nH]c2-c2ccc(F)cc2)ccn1.Cl.Cl (stereo not given) | 3350 |
| CN1CCC(c2cc(-c3ccncc3)c(-c3ccc(F)cc3)[nH]2)CC1.Cl | 230 |
| C[C@@H]1C[C@H](c2cc(-c3ccncc3)c(-c3ccc(F)cc3)[nH]2)CCN1C.Cl.Cl (racemic) | 360 |
| CN1CCC(c2cc(-c3ccncc3)c(-c3ccsc3)[nH]2)CC1.Cl.Cl | 1020 |
| CCOC(=O)c1c(C2CCN(C)CC2)[nH]c(-c2ccc(F)cc2)c1-c1ccncc1.Cl.Cl | 2470 |
| CN1CCC(c2cc(-c3ccnc(N)c3)c(-c3ccc(F)cc3)[nH]2)CC1.Cl.Cl | 50 |
| CN1CCC(c2cc(-c3ccncc3Br)c(-c3ccc(F)cc3)[nH]2)CC1.Cl.Cl | 330 |
| CN1C2CCC1CC(c1cc(-c3ccncc3)c(-c3ccc(F)cc3)[nH]1)C2.Cl.Cl (stereo not given) | 350 |
| Cc1cnccc1-c1cc(C2CCN(C)CC2)[nH]c1-c1ccc(F)cc1.Cl.Cl | 1360 |

system: Plasmodium falciparum; assay: Antimalarial activity against Plasmodium falciparum expressing PKG T618Q mutant infected in human erythrocytes assessed as reduction in parasitemia incubated for 72 hrs by SYBR green I and Mitotracker deep red dye based flow cytometric analysis; format: functional, organism-based; conditions: Plasmodium falciparum, 72 h

| Compound | EC50 [nM] |
| --- | --- |
| CN1CCC(c2cc(-c3ccncc3C#N)c(-c3ccc(F)cc3)[nH]2)CC1.Cl.Cl | 4400 |
| CN1CCC(c2cc(-c3ccncc3Cl)c(-c3ccc(F)cc3)[nH]2)CC1.Cl.Cl | 3950 |
| Cc1cc(-c2cc(C3CCN(C)CC3)[nH]c2-c2ccc(F)cc2)ccn1.Cl.Cl | 960 |
| C[C@H]1C[C@H](c2cc(-c3ccncc3)c(-c3ccc(F)cc3)[nH]2)CCN1C.Cl.Cl (racemic) | 950 |
| CN1CCC(c2cc(-c3ccnc(C(N)=O)c3)c(-c3ccc(F)cc3)[nH]2)CC1.Cl.Cl | > 10000 |
| CN1CCC(c2cc(-c3ccncc3)c(-c3ccc(F)cc3)n2C)CC1.Cl.Cl | 690 |
| CC(=O)O.CN1CCC(c2[nH]c(-c3ccc(F)cc3)c(-c3ccncc3)c2CO)CC1 | 4190 |
| CN1CCC(c2cc(-c3ccncc3F)c(-c3ccc(F)cc3)[nH]2)CC1.Cl.Cl | 5220 |
| CN1CCC(c2[nH]c(-c3ccc(F)cc3)c(-c3ccncc3)c2Br)CC1.Cl.Cl | 1140 |
| CC(O)c1cc(-c2cc(C3CCN(C)CC3)[nH]c2-c2ccc(F)cc2)ccn1.Cl.Cl (stereo not given) | 8320 |
| CN1CCC(c2cc(-c3ccncc3)c(-c3ccc(F)cc3)[nH]2)CC1.Cl | 1020 |
| C[C@@H]1C[C@H](c2cc(-c3ccncc3)c(-c3ccc(F)cc3)[nH]2)CCN1C.Cl.Cl (racemic) | 900 |
| CN1CCC(c2cc(-c3ccncc3)c(-c3ccsc3)[nH]2)CC1.Cl.Cl | 1740 |
| CCOC(=O)c1c(C2CCN(C)CC2)[nH]c(-c2ccc(F)cc2)c1-c1ccncc1.Cl.Cl | 1630 |
| CN1CCC(c2cc(-c3ccnc(N)c3)c(-c3ccc(F)cc3)[nH]2)CC1.Cl.Cl | 600 |
| CN1CCC(c2cc(-c3ccncc3Br)c(-c3ccc(F)cc3)[nH]2)CC1.Cl.Cl | 1670 |
| CN1C2CCC1CC(c1cc(-c3ccncc3)c(-c3ccc(F)cc3)[nH]1)C2.Cl.Cl (stereo not given) | 670 |
| Cc1cnccc1-c1cc(C2CCN(C)CC2)[nH]c1-c1ccc(F)cc1.Cl.Cl | 1130 |

system: Plasmodium berghei; assay: Antimalarial activity against Plasmodium berghei sporozoites expressing Luciferase infected in human HepG2 cells assessed as reduction in parasite growth incubated for 48 hrs by ONE-Glo luciferase assay; format: functional, organism-based; conditions: Plasmodium berghei, HepG2, 48 h

| Compound | EC50 [nM] |
| --- | --- |
| CN1CCC(c2cc(-c3ccncc3C#N)c(-c3ccc(F)cc3)[nH]2)CC1.Cl.Cl | 340 |
| CN1CCC(c2cc(-c3ccncc3Cl)c(-c3ccc(F)cc3)[nH]2)CC1.Cl.Cl | 1440 |
| Cc1cc(-c2cc(C3CCN(C)CC3)[nH]c2-c2ccc(F)cc2)ccn1.Cl.Cl | 3700 |
| C[C@H]1C[C@H](c2cc(-c3ccncc3)c(-c3ccc(F)cc3)[nH]2)CCN1C.Cl.Cl (racemic) | 560 |
| CN1CCC(c2cc(-c3ccncc3)c(-c3ccc(F)cc3)n2C)CC1.Cl.Cl | 2300 |
| CN1CCC(c2cc(-c3ccncc3F)c(-c3ccc(F)cc3)[nH]2)CC1.Cl.Cl | 780 |
| CC(O)c1cc(-c2cc(C3CCN(C)CC3)[nH]c2-c2ccc(F)cc2)ccn1.Cl.Cl (stereo not given) | > 10000 |
| CN1CCC(c2cc(-c3ccncc3)c(-c3ccc(F)cc3)[nH]2)CC1.Cl | 270 |
| C[C@@H]1C[C@H](c2cc(-c3ccncc3)c(-c3ccc(F)cc3)[nH]2)CCN1C.Cl.Cl (racemic) | 670 |
| CN1CCC(c2cc(-c3ccncc3)c(-c3ccsc3)[nH]2)CC1.Cl.Cl | 2400 |
| CCOC(=O)c1c(C2CCN(C)CC2)[nH]c(-c2ccc(F)cc2)c1-c1ccncc1.Cl.Cl | 2600 |
| CN1CCC(c2cc(-c3ccnc(N)c3)c(-c3ccc(F)cc3)[nH]2)CC1.Cl.Cl | 590 |
| CN1CCC(c2cc(-c3ccncc3Br)c(-c3ccc(F)cc3)[nH]2)CC1.Cl.Cl | 340 |
| CN1C2CCC1CC(c1cc(-c3ccncc3)c(-c3ccc(F)cc3)[nH]1)C2.Cl.Cl (stereo not given) | 490 |
| Cc1cnccc1-c1cc(C2CCN(C)CC2)[nH]c1-c1ccc(F)cc1.Cl.Cl | 590 |

species: Homo sapiens; assay: Inhibition of human PKG using FAM-IP3R peptide as fluorescent substrate at 10 uM preincubated for 15 mins followed by substrate addition measured after 1 hr by fluorescence polarization based IMAP assay relative to control; conditions: time 75.0 min

| Compound | inhibition [%] |
| --- | --- |
| CN1CCC(c2cc(-c3ccncc3C#N)c(-c3ccc(F)cc3)[nH]2)CC1.Cl.Cl | 2 |
| CN1CCC(c2cc(-c3ccncc3Cl)c(-c3ccc(F)cc3)[nH]2)CC1.Cl.Cl | 12 |
| Cc1cc(-c2cc(C3CCN(C)CC3)[nH]c2-c2ccc(F)cc2)ccn1.Cl.Cl | 9 |
| C[C@H]1C[C@H](c2cc(-c3ccncc3)c(-c3ccc(F)cc3)[nH]2)CCN1C.Cl.Cl (racemic) | 7 |
| CN1CCC(c2cc(-c3ccnc(C(N)=O)c3)c(-c3ccc(F)cc3)[nH]2)CC1.Cl.Cl | 14 |
| CN1CCC(c2cc(-c3ccncc3)c(-c3ccc(F)cc3)n2C)CC1.Cl.Cl | 4 |
| CC(=O)O.CN1CCC(c2[nH]c(-c3ccc(F)cc3)c(-c3ccncc3)c2CO)CC1 | 11 |
| CN1CCC(c2cc(-c3ccncc3F)c(-c3ccc(F)cc3)[nH]2)CC1.Cl.Cl | 18 |
| CN1CCC(c2[nH]c(-c3ccc(F)cc3)c(-c3ccncc3)c2Br)CC1.Cl.Cl | 12 |
| CC(O)c1cc(-c2cc(C3CCN(C)CC3)[nH]c2-c2ccc(F)cc2)ccn1.Cl.Cl (stereo not given) | 0.5 |
| CN1CCC(c2cc(-c3ccncc3)c(-c3ccc(F)cc3)[nH]2)CC1.Cl | 6 |
| C[C@@H]1C[C@H](c2cc(-c3ccncc3)c(-c3ccc(F)cc3)[nH]2)CCN1C.Cl.Cl (racemic) | 10 |
| CN1CCC(c2cc(-c3ccncc3)c(-c3ccsc3)[nH]2)CC1.Cl.Cl | 7 |
| CCOC(=O)c1c(C2CCN(C)CC2)[nH]c(-c2ccc(F)cc2)c1-c1ccncc1.Cl.Cl | 0 |
| CN1CCC(c2cc(-c3ccnc(N)c3)c(-c3ccc(F)cc3)[nH]2)CC1.Cl.Cl | -4 |
| CN1CCC(c2cc(-c3ccncc3Br)c(-c3ccc(F)cc3)[nH]2)CC1.Cl.Cl | 13 |
| CN1C2CCC1CC(c1cc(-c3ccncc3)c(-c3ccc(F)cc3)[nH]1)C2.Cl.Cl (stereo not given) | -9 |
| Cc1cnccc1-c1cc(C2CCN(C)CC2)[nH]c1-c1ccc(F)cc1.Cl.Cl | 12 |
